According to BindingDB's records for doi:10.1021/jm900597q (Gilead Sciences, 2009):

What was measured:
[1] = biological target: Reverse transcriptase/RNaseH (Human immunodeficiency virus 1, UniProt Q72547); assay: Fluorescence-Based RNase H Assay; details: pH 8; 20 °C
Ribonuclease H1 = biological target: T1, Ribonuclease H1 (Homo sapiens, UniProt O60930); assay: Fluorescence-Based RNase H Assay; details: pH 8; 20 °C
T1 sequence (O60930 whole entry): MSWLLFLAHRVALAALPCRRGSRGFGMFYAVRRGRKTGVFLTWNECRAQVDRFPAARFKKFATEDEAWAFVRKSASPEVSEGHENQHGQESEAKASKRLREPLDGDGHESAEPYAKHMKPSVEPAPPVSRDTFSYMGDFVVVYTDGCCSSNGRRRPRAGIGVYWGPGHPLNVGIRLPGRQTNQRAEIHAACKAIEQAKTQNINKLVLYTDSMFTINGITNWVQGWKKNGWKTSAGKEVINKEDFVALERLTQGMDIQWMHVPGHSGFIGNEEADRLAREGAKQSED

IC50 [1] [µM] | IC50 (Ribonuclease H1) [µM] | SMILES
0.66 |  | CC(C)c1ccc(O)c(=O)c(O)c1 [hydroxytropolone, 3]
13 | > 100 | O=C(O)c1nc(-c2ccccc2)nc(O)c1O
